Source: the supplement of paper PMC10307832

Assays:
Assay in all cases: relative viability (nuclei count vs DMSO), 5 days (fraction); higher = more cells survive
[1] = compound: CC1=CC=C(C=C1)C(=O)CN2C3=C(CCCC3)SC2=N [Pifithrin_alpha] + CS(=O)(=O)CCNCc1ccc(-c2ccc3ncnc(Nc4ccc(OCc5cccc(F)c5)c(Cl)c4)c3c2)o1 [Lapatinib] (partner 2 µM)
Outline: (§1)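 Values are medians from duplicate plates. Each reflects relative viability, defined as the nuclei count of treated wells over that of vehicle wells. Lung cancer cell lines in 1536-well plates were pin-tool dosed one day after seeding with one drug alone or with a fixed anchor-drug dose plus five library-drug doses (not always all listed) in √10 steps, then fixed, stained and imaged at 4× after 5 days.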

[2] = compound: Nc1nc(Nc2ccc3c(c2)CC[C@@H](N2CCCC2)CC3)nn1-c1cc2c(nn1)-c1ccccc1CCC2 [Bemcentinib] + CC(=O)c1c(C)c2cnc(Nc3ccc(N4CCNCC4)cn3)nc2n(C2CCCC2)c1=O [Palbociclib] (partner 0.5 µM)
Outline: as §1

[3] = compound: Nc1nc(Nc2ccc3c(c2)CC[C@@H](N2CCCC2)CC3)nn1-c1cc2c(nn1)-c1ccccc1CCC2 [Bemcentinib] + CC(=O)Nc1cccc(-n2c(=O)n(C3CC3)c(=O)c3c(Nc4ccc(I)cc4F)n(C)c(=O)c(C)c32)c1 [Trametinib] (partner 0.02 µM)
Outline: as §1

[4] = compound: Nc1nc(Nc2ccc3c(c2)CC[C@@H](N2CCCC2)CC3)nn1-c1cc2c(nn1)-c1ccccc1CCC2 [Bemcentinib] + C[C@@H](Oc1cc(-c2cnn(C3CCNCC3)c2)cnc1N)c1c(Cl)ccc(F)c1Cl [Crizotinib] (partner 1 µM)
Outline: as §1

Cell Line	relative viability ([1]; first compound 1 µM)	relative viability ([1]; first compound 3.162 µM)	relative viability ([1]; first compound 10 µM)	relative viability ([1]; first compound 31.62 µM)	relative viability ([1]; first compound 100 µM)	relative viability ([2]; first compound 0.04 µM)	relative viability ([2]; first compound 0.1265 µM)	relative viability ([2]; first compound 0.4 µM)	relative viability ([2]; first compound 1.265 µM)	relative viability ([2]; first compound 4 µM)	relative viability ([3]; first compound 0.04 µM)	relative viability ([3]; first compound 0.1265 µM)	relative viability ([3]; first compound 0.4 µM)	relative viability ([3]; first compound 1.265 µM)	relative viability ([3]; first compound 4 µM)	relative viability ([4]; first compound 0.04 µM)	relative viability ([4]; first compound 0.1265 µM)	relative viability ([4]; first compound 0.4 µM)	relative viability ([4]; first compound 1.265 µM)	relative viability ([4]; first compound 4 µM)
NCI-H1793	0.692	0.716	0.505	0.867	0.739	0.331	0.369	0.306	0.26	0.322	0.442	0.436	0.421	0.442	0.365					
HCC-78	0.432	0.77	0.693		0.619	0.461	0.455	0.438	0.409	0.48	0.735	0.746	0.936	0.809	0.801	0.322	0.344	0.334	0.334	0.328
NCI-H322M	0.578	0.621	0.557	0.635	0.613	0.49	0.481	0.483	0.537	0.557	0.477	0.534	0.496	0.504	0.51	1.02	0.971	0.944	1.05	1.09
COR-L23	1.05	1.28	1.06		0.926	0.304	0.316	0.275	0.382	0.31	0.569	0.696	0.66	0.641	0.658	0.65	0.787	0.729	0.784	0.56
201T	0.959	0.728	0.744	0.83	0.689	0.333	0.314	0.392	0.363	0.389	0.731	0.778	0.744	0.743	0.734	1.05	1.03	0.983	1.05	1.07
ABC-1	1.36	1.24	0.923		1.36	0.532	0.825	0.654	0.655	0.639						1.06	1.26	0.934	0.95	1.02
NCI-H2342						0.605	0.614	0.562	0.575	0.529	0.897	0.904	0.895	0.988	0.88					
LCLC-103H						0.459	0.438	0.522	0.497	0.554	0.706	0.736	0.679	0.712	0.707	1.05	1.11	1.04	1.13	1.11
IA-LM	0.624	0.788	0.498	0.407	0.322											0.777	0.654	0.947	0.752	0.842
NCI-H441						0.197	0.202	0.227	0.195	0.223	0.294	0.435	0.499	0.347	0.409	0.66	0.704	0.757	0.665	0.779
NCI-H1648						0.255	0.236	0.276	0.297	0.291	0.636	0.455	0.477	0.481	0.408					
ChaGo-K-1						0.963	0.953	1.02	0.954	0.938	0.911	0.945	0.939	0.877	0.902	1.12	1.33	1.15	1.18	1.12
NCI-H1395		0.797	0.967	0.663	0.814		0.621	0.645	0.64	0.631		1.12	1.02	1.2	1.11					
Calu-6	1.02	1.03	0.986	0.675	1.07											0.76	0.958	1.09	0.858	0.676
NCI-H1563	0.623	0.863	0.931	0.769	1.01											0.79	0.759	0.81	0.849	0.89
EBC-1	0.21	0.225	0.192	0.213	0.165											0.185	0.214	0.179	0.236	0.193
NCI-H1703	1.07	1.03	1.04	0.863	1.32												0.687	0.723	0.717	0.627
SW 900						0.58	0.594	0.518	0.538	0.591	0.56	0.947	0.927	0.953	0.933					
NCI-H1299	0.976	0.985	1.02	0.73	0.947											0.963	0.967	1.02	0.937	0.942
NCI-H522						0.834	1.04	1.07	1.1	0.915	0.75	0.742	0.754	0.771	0.788					
A549	1.12	1	0.838	0.766	0.739											0.786	0.795	0.966	0.824	0.742
NCI-H596	0.9	0.934	1.02	0.915	1.07						0.911	0.965	0.93	0.946	0.923	0.969	1.01	1.08	1.1	1.05
